Measured values as given in patent publication US10828326B2, “Compositions and methods for treating and preventing venom related poisoning” (priority 2015, dated 2020).

Tested on: Crotalus atrox venom-enhanced tissue-type plasminogen activator initiated fibrinolysis
Assay: Thrombelastography of human plasma pretreated with iron and/or CO before venom exposure in the presence of tPA (Example II)
Type: biochemical
Details: 100 IU/ml tPA, vs matched samples without or with venom exposure (0.5 μg/ml)
Procedure: Two hundred mg of lyophilized, pooled venom was obtained from four western diamondback rattlesnakes (Crotalus atrox) for experimentation. Venom was reconstituted in calcium-free phosphate buffered saline (PBS, Sigma-Aldrich, Saint Louis, Mo., USA) at a concentration of 20 mg/ml, aliquoted, and then stored at −80° C. until experimentation at the University of Arizona.
Pooled normal plasma (George King Bio-Medical, Overland Park, Kans., USA) anticoagulated with sodium citrate was rapidly thawed at 37° C. and used for experimentation. To assess the effects of pretreatment of antifibrinolytic plasma proteins with iron, CO, or both, 1% additions of PBS, ferric chloride (FeCl3, 99.9% pure, Sigma-Aldrich, Saint Louis, Mo., USA) in PBS, or CORM-2 (tricarbonyldichlororuthenium (II) dimer, a CO releasing molecule, Sigma-Aldrich, Saint Louis, Mo., USA) dissolved in dimethyl sulfoxide (DMSO, Sigma-Aldrich, Saint Louis, Mo., USA) were used. […] Plasma was exposed to these various agents for at least 5 min prior to incubations with venom.
The final volume for all subsequently described plasma sample mixtures was 359.4 μl. Sample composition consisted of […] of plasma; 10 μl of tissue factor reagent (0.1% final concentration in distilled water; Diagnostica Stago S.A.S., Asnieres sur Seine, France), 10 μl of tissue type plasminogen activator (tPA, 580 IU/μg, Genentech, Inc., San Francisco, Calif., USA; 100 IU/ml final concentration) and 3.4 μl of PBS or venom (final concentration 0.5-2.0 μg/ml). […] The aforementioned plasma and venom mixtures were placed in a disposable cup in a computer-controlled Thrombelastograph® hemostasis system (Model 5000, Haemoscope Corp., Niles, Ill., USA) and incubated for 5 min at 37° C., with addition of 20 μl of 200 mM CaCl2) as the last step to initiate clotting. Data were collected at 37° C. until clot lysis time (CLT) was observed. The following elastic modulus-based parameters previously described (see, Nielsen V G, Pretorius E. Blood Coagul Fibrinolysis 2014; 25:695-702) were determined: time to maximum rate of thrombus generation (TMRTG): this is the time interval (min) observed prior to maximum speed of clot growth; maximum rate of thrombus generation (MRTG): this is the maximum velocity of clot growth observed (dynes/cm^2/sec); total thrombus generation (TTG, dynes/cm^2), the final viscoelastic resistance observed after clot formation; time to maximum rate of lysis (TMRL, min), maximum rate of lysis (MRL, dynes/cm^2/sec) and CLT (min). Lastly, to assess if venom had thrombolytic properties that were tPA independent, n=4 replicates were performed wherein no tPA was added and data were collected for 3 h.
Data are presented as mean±SD. All conditions unless otherwise indicated were represented by n=8 replicates. This number of replicates reliably provides a statistical power>0.8 for P<0.05 (see, Nielsen V G, Pretorius E. Blood Coagul Fibrinolysis 2014; 25:695-702). A commercially available statistical program was used for two-way analysis of variance (ANOVA) to assess interactions of venom and tPA on coagulation kinetics and interactions of iron and CO on venom-enhanced fibrinolysis (SigmaStat 3.1, Systat Software, Inc., San Jose, Calif., USA). Additional one-way ANOVA followed by Holm-Sidak post hoc analyses were performed to assess differences between the conditions. Graphics depicting viscoelastic data were generated with a commercially available program (OrigenPro 7.5, OrigenLab Corporation, Northampton, Mass., USA).

[1] = 10 μM ferric chloride or 100 μM CORM-2

## [Cl][Fe]([Cl])[Cl] [iron, ferric chloride]
[1]
  clot lysis time (CLT): significantly greater
  maximum rate of thrombus generation (MRTG): greater
  time to maximum rate of lysis (TMRL): significantly greater
  total thrombus generation (TTG): greater
10 μM ferric chloride
  maximum rate of lysis (MRL): significantly greater
  time to maximum rate of thrombus generation (TMRTG): significantly lesser
